Where a name gives a salt, the structure may show the parent alone.
How the values were obtained:
human Apo(a) protein = human Apo(a) protein (Homo sapiens, UniProt P08519); assay: In vitro Apo(a) binding assay (competitive SPA radioligand binding); settings: human Apo(a) with 17 Kringle repeats; geometric mean ± SEM (n)
Procedure: The in vitro binding affinity of compounds to the intended target human Apo(a) protein is tested in a competitive binding assay. Human Apo(a) protein containing 17 Kringle repeats is affinity purified from conditioned media of transiently transfected HEK-293F cells. All reagents are prepared in assay buffer containing 50 mM Tris-HCl pH 7.4, 0.1% BSA. The binding assay is conducted by adding to each well of a clear-bottom plate […] of (1) test compound in dilution series (final concentration […]), (2) Apo(a) protein (6 ng/well), (3) re-suspended Wheat Germ Agglutinin Polyvinyltoluene SPA beads (20 mg/ml), and (4) the radioligand, tritium-labeled (2S)-3-[3-[2-oxo-3-[3-(tritritiomethoxy)phenyl]imidazolidin-1-yl]phenyl]-2-[(3R)-pyrrolidin-3-yl]propanoic acid; hydrochloride (final concentration 0.52 nM). Plates are incubated for 60 minutes at RT and counted on TRILUX LSC. […] Data are analyzed by fitting to a standard single site binding model and the IC50 for the Example test compound is determined. […] Inhibition of the assembly of the LDL particle with apo(a) through binding to the Apo(a) protein supports a reduction in Lp(a) levels.

plasma Lp(a) = assay: In vivo Lp(a) inhibition in mice; settings: for Lp(a) inhibition (% at 30 mpk): 30 mpk oral twice a day; for Lp(a) inhibition (% at 30 mpk) / ED50: day 3 at 8 h post morning oral dose; for Lp(a) inhibition (% at 30 mpk) / Lp(a) inhibition (%): mean ± SEM; for ED50: effective dose for 50% Lp(a) inhibition, oral, twice a day, ED50 ± standard error
Procedure: The ability of compounds to reduce steady-state Lp(a) level in vivo is assessed in a transgenic mouse model capable of producing humanized Lp(a) particles. In vivo effects of Lp(a) disruptor compounds are tested in 7 to 17-month-old female double transgenic mice expressing human apoB-100 and human apo(a) containing 17 Kringle repeats: B6.SJL-Tg(APOB)1102Sgy Tg(Alb-LPA)32Arte. Mice are housed with standard light cycle (12 hrs. light/12 hrs. dark), at RT 72±8° F. and relative humidity of 30˜70%, and with free access to water and normal chow diet (Harlan Tecklad diet 2014). Mice are randomized to treatment groups (n=5/group) 3 to 5 days before the study by body weight and baseline plasma Lp(a) concentration using BRAT (Block Randomized Allocation Tool) for the study. Mice are orally dosed (or subcutaneously where noted) with vehicle (oral dose vehicle: 10 mL/kg, 1% HEC, 0.25% Tween80, 0.01% Antifoam; subcutaneous dose vehicle: 5 mL/kg saline) or test compound at various dose levels twice a day (6:30 am and […]) for 5 days. Blood is collected in heparin-coated capillary tubes via tail bleed. Twenty μL of each blood sample is transferred to a DBS card (Whatman Cat #: WB12 9243) for drug exposure analysis. The remaining blood samples are centrifuged to separate plasma. Lp(a) concentration in plasma is measured using a sandwich ELISA as described for the in vitro Lp(a) assembly assay. The % inhibition for each dose group is determined with the mean the Lp(a) level of the vehicle control group set to 0% inhibition. […] ED50 (effective dose for 50% Lp(a) inhibition) calculations as determined by Threshold Minimum Effective Dose analysis.

[1] = molecular target: assembly of Lp(a) from Apo(a) and the LDL particle (Homo sapiens, UniProt P08519); assay: In vitro Lp(a) assembly assay (cell-free, HepG2 and HEK293 conditioned media, sandwich ELISA); type: biochemical; settings: inhibition of Lp(a) formation, 37° C. for 2 hrs; geometric mean ± SEM (n)
Procedure: The ability of compounds to inhibit the formation of Lp(a) particles in vitro is assessed by a cell-free assembly assay. Conditioned media (DMEM supplemented with 10% FBS, 20 mM HEPES, and 1× penicillin/streptomycin) is collected from confluent wild-type HepG2 cells (a source of endogenously expressed ApoB) and from a HEK293 stable cell line expressing human Apo(a) protein containing 17 Kringle repeats (selected on 1 mg/ml geneticin) after 24 hours of culture at 37° C. and 5% CO2. An in vitro assembly assay is conducted by combining equal parts of HepG2 and HEK293 conditioned media with the test compounds added in dilution series (final concentration 0.01˜100 nM). The reaction is incubated at 37° C. for 2 hrs and then stopped with the addition of 6-aminocaproic acid (EACA) to a final concentration of 150 mM. Lp(a) is detected using a sandwich ELISA with an anti-Lp(a) capture antibody and an HRP-conjugated anti-ApoB detection antibody. The ELISA is developed using TMB, stopped using 1 N sulfuric acid, and the signal is read at 450 nm on a Molecular Devices plate reader.

[2] = 30 mg/kg oral twice a day, day 3 at 4 h post morning dose

human Apo(a) protein, sequence (P08519 20-2040 limits assumed): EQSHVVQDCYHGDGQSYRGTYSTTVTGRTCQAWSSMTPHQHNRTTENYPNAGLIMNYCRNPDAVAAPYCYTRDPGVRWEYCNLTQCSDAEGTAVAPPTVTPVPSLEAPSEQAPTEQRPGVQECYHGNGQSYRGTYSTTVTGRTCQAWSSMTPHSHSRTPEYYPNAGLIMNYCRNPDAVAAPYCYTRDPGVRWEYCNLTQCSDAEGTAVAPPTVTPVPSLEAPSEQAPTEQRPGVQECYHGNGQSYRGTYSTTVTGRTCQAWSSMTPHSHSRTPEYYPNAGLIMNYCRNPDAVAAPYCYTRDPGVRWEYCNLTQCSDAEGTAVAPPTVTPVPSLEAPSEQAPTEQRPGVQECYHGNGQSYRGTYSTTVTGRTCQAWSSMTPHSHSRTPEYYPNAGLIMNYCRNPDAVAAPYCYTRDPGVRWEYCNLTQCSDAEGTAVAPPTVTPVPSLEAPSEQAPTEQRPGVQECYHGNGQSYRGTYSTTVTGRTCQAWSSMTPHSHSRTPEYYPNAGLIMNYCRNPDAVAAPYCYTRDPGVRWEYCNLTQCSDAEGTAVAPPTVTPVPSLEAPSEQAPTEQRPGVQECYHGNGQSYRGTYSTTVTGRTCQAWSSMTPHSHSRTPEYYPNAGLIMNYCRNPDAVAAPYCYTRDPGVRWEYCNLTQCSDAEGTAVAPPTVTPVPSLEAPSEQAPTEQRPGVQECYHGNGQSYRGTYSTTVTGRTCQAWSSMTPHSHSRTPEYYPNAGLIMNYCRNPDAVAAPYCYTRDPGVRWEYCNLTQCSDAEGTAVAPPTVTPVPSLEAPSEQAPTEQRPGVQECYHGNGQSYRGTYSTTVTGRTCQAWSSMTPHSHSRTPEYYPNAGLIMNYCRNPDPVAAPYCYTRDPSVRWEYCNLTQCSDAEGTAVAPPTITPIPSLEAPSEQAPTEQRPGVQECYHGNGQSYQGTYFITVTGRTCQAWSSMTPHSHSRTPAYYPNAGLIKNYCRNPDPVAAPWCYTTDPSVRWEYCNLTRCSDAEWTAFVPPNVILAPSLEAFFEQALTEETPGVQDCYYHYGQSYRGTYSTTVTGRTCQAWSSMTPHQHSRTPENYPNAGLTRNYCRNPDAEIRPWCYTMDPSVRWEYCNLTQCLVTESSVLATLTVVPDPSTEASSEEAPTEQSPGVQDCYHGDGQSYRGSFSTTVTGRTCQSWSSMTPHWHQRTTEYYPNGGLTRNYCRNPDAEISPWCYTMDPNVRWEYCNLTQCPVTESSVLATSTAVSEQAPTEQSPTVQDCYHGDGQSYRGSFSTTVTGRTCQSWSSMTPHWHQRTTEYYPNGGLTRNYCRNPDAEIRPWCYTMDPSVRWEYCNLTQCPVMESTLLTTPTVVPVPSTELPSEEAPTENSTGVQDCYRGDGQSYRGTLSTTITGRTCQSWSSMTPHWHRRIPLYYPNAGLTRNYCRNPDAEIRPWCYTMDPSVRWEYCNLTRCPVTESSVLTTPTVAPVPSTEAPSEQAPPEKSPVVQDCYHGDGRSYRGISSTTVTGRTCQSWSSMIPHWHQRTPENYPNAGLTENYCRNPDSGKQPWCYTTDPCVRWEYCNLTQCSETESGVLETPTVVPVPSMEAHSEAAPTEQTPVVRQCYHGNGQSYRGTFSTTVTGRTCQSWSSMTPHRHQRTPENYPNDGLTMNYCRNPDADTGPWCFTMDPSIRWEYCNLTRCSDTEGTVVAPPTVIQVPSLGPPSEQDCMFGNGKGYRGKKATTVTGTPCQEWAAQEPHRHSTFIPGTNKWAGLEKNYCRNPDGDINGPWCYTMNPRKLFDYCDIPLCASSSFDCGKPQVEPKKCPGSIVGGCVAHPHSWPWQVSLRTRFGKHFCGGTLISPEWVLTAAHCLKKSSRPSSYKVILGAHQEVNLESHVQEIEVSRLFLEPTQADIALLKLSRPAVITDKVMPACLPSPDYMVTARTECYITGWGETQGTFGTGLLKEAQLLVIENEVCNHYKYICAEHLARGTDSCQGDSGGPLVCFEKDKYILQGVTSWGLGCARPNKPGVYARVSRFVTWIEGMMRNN
assembly of Lp(a) from Apo(a) and the LDL particle, sequence (P08519 20-2040 limits assumed): as above

SMILES: O=C(O)[C@@H](Cc1cccc(CN(Cc2cccc(C[C@H](C(=O)O)[C@H]3CCNC3)c2)Cc2cccc(C[C@H](C(=O)O)[C@H]3CCNC3)c2)c1)[C@H]1CCNC1 [Example 1, (2S)-3-[3-[[Bis[[3-[(2S)-2-carboxy-2-[(3R)-pyrrolidin-3-yl]ethyl]phenyl]methyl]amino]methyl]phenyl]-2-[(3R)-pyrrolidin-3-yl]propanoic acid; tetrahydrochloride]
- IC50 (human Apo(a) protein): < 0.314 nM
- Lp(a) inhibition (% at 30 mpk) (plasma Lp(a)): 91 ± 0.73%
- ED50 (plasma Lp(a)): 3.3 ± 0.53 mg/kg
- IC50 [1]: 0.0963 ± 0.0233 nM

SMILES: Cl.O=C(O)[C@@H](Cc1ccccc1)[C@H]1CCNC1 [Example 17, (2S)-3-Phenyl-2-[(3R)-pyrrolidin-3-yl]propanoic acid; hydrochloride]
- Lp(a) inhibition (% at 30 mpk) (plasma Lp(a)): 60 ± 3.46%
- ED50 (plasma Lp(a)): 20.6 ± 1.79 mg/kg

SMILES: O=C(O)[C@@H](Cc1cccc([S+]([O-])c2cccc(C[C@H](C(=O)O)[C@H]3CCNC3)c2)c1)[C@H]1CCNC1 [Example 11, (2S)-3-[3-[3-[(2S)-2-Carboxy-2-[(3R)-pyrrolidin-3-yl]ethyl]phenyl]sulfinylphenyl]-2-[(3R)-pyrrolidin-3-yl]propanoic acid; dihydrochloride]
- IC50 [1]: 0.396 ± 0.241 nM

SMILES: O=C(O)[C@@H](Cc1cccc(CNCc2cccc(C[C@H](C(=O)O)[C@H]3CCNC3)c2)c1)[C@H]1CCNC1 [Example 3, (2S)-3-[3-[[[3-[(2S)-2-Carboxy-2-[(3R)-pyrrolidin-3-yl]ethyl]phenyl]methylamino]methyl]phenyl]-2-[(3R)-pyrrolidin-3-yl]propanoic acid; trihydrochloride]
- IC50 (human Apo(a) protein): 2.13 ± 0.159 nM
- IC50 [1]: 0.934 ± 0.306 nM

SMILES: O=C(O)[C@@H](Cc1cccc(NS(=O)(=O)Nc2cccc(C[C@H](C(=O)O)[C@H]3CCNC3)c2)c1)[C@H]1CCNC1 [Example 16, (2S,2′S)-3,3′-[Sulfonylbis(azanediyl-3,1-phenylene)]bis{2-[(3R)-pyrrolidin-3-yl]propanoic acid}; dihydrochloride]
- IC50 [1]: 0.563 ± 0.119 nM

SMILES: O=C(O)[C@@H](Cc1cccc(Nc2cccc(C[C@H](C(=O)O)[C@H]3CCNC3)c2)c1)[C@H]1CCNC1 [Example 14, (2S)-3-[3-[3-[(2S)-2-Carboxy-2-[(3R)-pyrrolidin-3-yl]ethyl]anilino]phenyl]-2-[(3R)-pyrrolidin-3-yl]propanoic acid; dihydrochloride]
- IC50 (human Apo(a) protein): < 0.314 nM
- Lp(a) inhibition (% at 30 mpk) (plasma Lp(a)): 72 ± 2.23%
- ED50 (plasma Lp(a)): 14.6 ± 2.48 mg/kg
- IC50 [1]: 0.348 ± 0.0984 nM

SMILES: Cl.O=C(O)[C@H](Cc1ccccc1)[C@@H]1CCNC1 [Example 18, (2R)-3-Phenyl-2-[(3S)-pyrrolidin-3-yl]propanoic acid; hydrochloride]
- Lp(a) inhibition (% at 30 mpk) (plasma Lp(a)): 68 ± 1.82%
- ED50 (plasma Lp(a)): 7.6 ± 2.43 mg/kg

SMILES: O=C(O)[C@@H](Cc1cccc(S(=O)(=O)c2cccc(C[C@H](C(=O)O)[C@H]3CCNC3)c2)c1)[C@H]1CCNC1 [Example 12, (2S)-3-[3-[3-[(2S)-2-Carboxy-2-[(3R)-pyrrolidin-3-yl]ethyl]phenyl]sulfonylphenyl]-2-[(3R)-pyrrolidin-3-yl]propanoicacid; dihydrochloride]
- Lp(a) inhibition (%) (plasma Lp(a); 30 mg/kg oral twice a day, day 3, samples taken at 8 h post oral dosing): 50 ± 3.82^3%
- IC50 [1]: 0.235 ± 0.0509 nM

SMILES: CN1CC[C@H]([C@H](Cc2cccc(Nc3cccc(C[C@H](C(=O)O)[C@H]4CCN(C)C4)c3)c2)C(=O)O)C1 [Example 15, (2S)-3-[3-[3-[(2S)-2-carboxy-2-[(3R)-1-methylpyrrolidin-3-yl]ethyl]anilino]phenyl]-2-[(3R)-1-methylpyrrolidin-3-yl]propanoic acid; dihydrochloride]
- IC50 [1]: 54.6 ± 9.15 nM

SMILES: O=C(O)[C@@H](Cc1cccc(COc2cccc(C[C@H](C(=O)O)[C@H]3CCNC3)c2)c1)[C@H]1CCNC1 [Example 9, (2S)-3-[3-[[3-[(2S)-2-Carboxy-2-[(3R)-pyrrolidin-3-yl]ethyl]phenoxy]methyl]phenyl]-2-[(3R)-pyrrolidin-3-yl]propanoic acid; dihydrochloride]
- Lp(a) inhibition (%) (plasma Lp(a); [2]): 56.5 ± 2.77%
- IC50 [1]: 0.359 ± 0.0292 nM

SMILES: O=C(O)[C@@H](Cc1cccc(OCCOc2cccc(C[C@H](C(=O)O)[C@H]3CCNC3)c2)c1)[C@H]1CCNC1 [Example 8, (2S)-3-[3-[2-[3-[(2S)-2-carboxy-2-[(3R)-pyrrolidin-3-yl]ethyl]phenoxy]ethoxy]phenyl]-2-[(3R)-pyrrolidin-3-yl]propanoic acid; dihydrochloride]
- IC50 [1]: 0.288 ± 0.19 nM

SMILES: COc1cc(F)cc(CN(Cc2cccc(C[C@H](C(=O)O)[C@H]3CCNC3)c2)Cc2cccc(C[C@H](C(=O)O)[C@H]3CCNC3)c2)c1 [Example 5, (2S)-3-[3-[[[3-[(2S)-2-Carboxy-2-[(3R)-pyrrolidin-3-yl]ethyl]phenyl]methyl-[(3-fluoro-5-methoxy-phenyl)methyl]amino]methyl]phenyl]-2-[(3R)-pyrrolidin-3-yl]propanoic acid; trihydrochloride]
- Lp(a) inhibition (%) (plasma Lp(a); 3 mg/kg oral twice a day, day 3 at 4 h post morning dose): 43.8 ± 4.24%
- IC50 [1]: 0.17 ± 0.0124 nM

SMILES: O=C(O)[C@@H](Cc1cccc(Oc2cccc(C[C@H](C(=O)O)[C@H]3CCNC3)c2)c1)[C@H]1CCNC1 [Example 7, (2S)-3-[3-[3-[(2S)-2-carboxy-2-[(3R)-pyrrolidin-3-yl]ethyl]phenoxy]phenyl]-2-[(3R)-pyrrolidin-3-yl]propanoicacid; dihydrochloride]
- Lp(a) inhibition (%) (plasma Lp(a); 30 mg/kg subcutaneous dosing twice a day, day 3 at 4 h post morning dose): 44.6 ± 5.0%
- IC50 [1]: 0.372 ± 0.0464 nM

SMILES: O=C(O)[C@@H](Cc1cccc(Sc2cccc(C[C@H](C(=O)O)[C@H]3CCNC3)c2)c1)[C@H]1CCNC1 [Example 10, (2S)-3-[3-[3-[(2S)-2-Carboxy-2-[(3R)-pyrrolidin-3-yl]ethyl]phenyl]sulfanylphenyl]-2-[(3R)-pyrrolidin-3-yl]propanoic acid; dihydrochloride]
- Lp(a) inhibition (%) (plasma Lp(a); [2]): 43.6 ± 4.6%
- IC50 [1]: 0.36 ± 0.119 nM

SMILES: O=C(O)[C@@H](Cc1cccc(CNc2cccc(C[C@H](C(=O)O)[C@H]3CCNC3)c2)c1)[C@H]1CCNC1 [Example 13, (2S)-3-[3-[[3-[(2S)-2-Carboxy-2-[(3R)-pyrrolidin-3-yl]ethyl]anilino]methyl]phenyl]-2-[(3R)-pyrrolidin-3-yl]propanoicacid; trihydrochloride]
- IC50 [1]: 2.39 ± 0.61 nM

SMILES: CC(Cc1cccc(CN(Cc2cccc(CC(C)(C(=O)O)[C@H]3CCNC3)c2)Cc2cccc(CC(C)(C(=O)O)[C@H]3CCNC3)c2)c1)(C(=O)O)[C@H]1CCNC1 (stereo partly drawn) [Example 6, 3-[3-[[bis[[3-[2-carboxy-2-[(3R)-pyrrolidin-3-yl]propyl]phenyl]methyl]amino]methyl]phenyl]-2-methyl-2-[(3R)-pyrrolidin-3-yl]propanoic acid; tetrahydrochloride]
- IC50 (human Apo(a) protein): < 0.314 nM
- IC50 [1]: 0.108 ± 0.0149 nM

From US11286249B2, “Pyrrolidine compounds” (Eli Lilly and Company, priority 2019, dated 2022)
